# Assay results as given in PMC12040169 (PLOS Biology, 2025).
# Assay: in vitro
# Details: human, hela cells, % viability
row,Structure (SMILES),"viability at 28.5 h, 10 µM [%]"
1,O=C(O)CCCOc1nc(C2CC2)cc(C(F)(F)F)n1 [CBK286886],92
2,Cc1nnc(SCc2cc(=O)nc(NC(=N)Nc3cccc(Cl)c3)[nH]2)s1 [CBK266318],75.5
3,Cc1ccc(OCC(=O)Nc2cccc3nsnc23)c(C)c1 [CBK263816],102
4,O=C(NC(c1ccc(Cl)cc1)c1ccsc1)C1CCN(C(=O)Oc2ccc(Cl)cc2)CC1 (stereo not drawn) [CBK060044],88.5
5,Cc1c(CNC2(c3ccccc3F)CCCC2)c(=O)n(C)c(=O)n1C [CBK282986],85.1
6,CC1CCCN(C(=S)NC2CC3CCC2C3)C1 (stereo not drawn) [CBK085999],92.7
7,COc1cc(C=C2C(=O)OC(C)(C(C)(C)C)OC2=O)cc(Br)c1OC (stereo not drawn) [CBK028893],96.5
8,COc1cccc(/C=N\NC(=O)CN2CCN(Cc3ccccc3)CC2)c1O [CBK263106],97.1
9,O=C(NCc1ccc(Cl)c(Cl)c1)Nc1cccc(C(=O)O)c1 [CBK155461G],109
10,COC(=O)Nc1ccc(S(=O)(=O)N2CCCC(C(=O)O)C2)cc1 (stereo not drawn) [CBK265364],98.5
11,O=C(Cn1cnc2c(oc3ccccc32)c1=O)Nc1ccc2c(c1)OCO2 [CBK287557],118
12,Cc1cc(NS(=O)(=O)c2cnn(-c3ccccc3)c2C)n(C)n1 [CBK067252],107
13,COC(=O)c1ccccc1NC(=O)C(C)Oc1ccc(Cl)cc1C (stereo not drawn) [CBK262388],79.2
14,COc1cc(-c2nccnc2N2CCN(c3ccncc3)CC2)cc(OC)c1OC [CBK036847],92
15,CCN(CCO)C(=O)c1coc(COc2ccc3sc(C)nc3c2)n1 [CBK307321],89.7
16,C(=N\N1CCOCC1)/c1cccs1 [CBK027942],96.9
17,c1csc(C2NN=C3C4CCN(CC4)C32)c1 (stereo not drawn) [CBK021915],91.5
18,CC[C@H]1CN(C(=O)c2ccnc(Cl)c2)CC[C@H]1CC(=O)O [CBK289139],92
19,Cc1nc(CN2C(=O)CC3(C2=O)C(=O)N(CCCCOc2ccccc2)c2ccccc23)cs1 (stereo not drawn) [CBK076103],102
20,O=C(NCCc1cccs1)Nc1cc(C(F)(F)F)cc(C(F)(F)F)c1 [CBK043718],91.1
21,CC1CCc2c(sc3ncnc(NC4CCN(CC(N)=O)CC4)c23)C1 (stereo not drawn) [CBK305008],91.7
22,CCN(CC)C(=O)c1sccc1NS(=O)(=O)c1ccc(OC)c(OC)c1 [CBK004596],94.3
23,CC(=O)Nc1ccc2nc(NC(=O)c3ccc(C)cc3)sc2c1 [CBK287304],103

row,Structure (SMILES),"viability at 28.5 h, 10 µM [%]"
1,COc1cccc(CN(Cc2ccco2)Cc2cncn2C)c1 [CBK282497],102
2,OCCOCCN1CCN(C(S)=Nc2ccccc2)CC1 [CBK018046],84.7
3,Cc1ccc(S(=O)(=O)NC(C)C(=O)Nc2cc(-c3nc4ccccc4[nH]3)ccc2C)cc1 (stereo not drawn) [CBK110320],96.2
4,CN1CCN(c2cc(N)nc(N)n2)CC1 [CBK266102],107
5,O=C(COc1cccnc1)N1CCCc2ccccc21 [CBK200258],92.5
6,Cc1ccc(S(=O)(=O)Nc2cccc(C(=O)O)c2)cc1 [CBK038891],84.1
7,O=S(=O)(Nc1nnn[nH]1)c1ccc(-c2cnco2)s1 [CBK062394],109
8,COc1ccc(CCC(=O)c2cnc3sc4c(n23)CCCCC4)cc1 [CBK016849],109
9,CC(=C\C(=O)O)/C(=C/c1ccc2ccccc2n1)C(=O)O [CBK278294N],87.7
10,COc1ccccc1CN(CC(C)(C)CN)C(=O)NCc1ccc(F)cc1 [CBK002470C],87
11,O=C(Cn1ccc(=O)[nH]c1=O)Nc1ccc(OCC(F)(F)F)cc1 [CBK305879],98
12,O=C(NC(=O)c1ccc2ccccc2c1)Nc1ccc(Br)cc1 [CBK261735],107
13,CC1CCN(C(=O)C2CC(=O)N(c3ccc(C(=O)O)cc3)C2)CC1 (stereo not drawn) [CBK286568],87.6
14,O=C(COc1cccc2ccccc12)Nc1cccnc1 [CBK263015],115
15,Cc1cc(C)n2nc(SCC(=O)O)nc2n1 [CBK268536],111
16,NC(=O)CN1CC2(CCN(CC3COc4ccccc4O3)CC2)c2ccccc21 (stereo not drawn) [CBK143960],89.4
17,CCC(C)NC(=O)Cn1c(C2CCNCC2)cc2cccnc21 (stereo not drawn) [CBK285003],103
18,Cc1ccc(-c2nnn(CC(=O)N(CCO)C(C(=O)NC3CCCC3)c3ccc(F)cc3)n2)o1 (stereo not drawn) [CBK084756],89.2
19,O=C(CCN1C(=O)/C(=C\C=C\c2ccccc2)SC1=S)Nc1cccc(C(=O)O)c1 [CBK264798],109
20,Cc1ccc(NC(=O)CC(=O)NCCN2CCOCC2)cc1 [CBK262179],92.8
21,CCOC(=O)c1c(NC(=S)NCc2ccccn2)sc2c1CCCCC2 [CBK266954],106
22,Cn1c2c(c(=O)[nH]c1=O)C1(O)C(=O)c3ccccc3C1(O)N2 (stereo not drawn) [CBK261683],105
23,NCC1CCN(c2cc(C(F)(F)F)c3scc(C(=O)NCc4cccc(F)c4F)c3n2)CC1 [CBK036391T],71.6

row,Structure (SMILES),"viability at 28.5 h, 10 µM [%]"
1,C=C(C)Cn1c(SC(C)C)nnc1-c1ccccc1OC(F)(F)F [CBK200081],114
2,O=C(NNC(=S)NCC1CCCO1)c1cccnc1 (stereo not drawn) [CBK266842],97.5
3,O=C(NC1CC1)[C@H]1O[C@H](CCN2CCN(c3ccccc3)CC2)CC[C@@H]1O [CBK288717],96.8
4,CCOC(=O)c1c(N)sc2c1CC(c1ccccc1)SC2c1ccccc1 (stereo not drawn) [CBK293955],87.5
5,c1csc(-c2nnc(C3CCN(Cc4ccsc4)CC3)o2)c1 [CBK285309],102
6,O=P(O)(CN1CCOCC1)CN1CCOCC1 [CBK260914],97.6
7,c1cncc(CNc2nc(-c3cccs3)cn3ccnc23)c1 [CBK066687],104
8,CC(CN1CCCCC1)OC(=O)COc1ccc(Br)cc1 (stereo not drawn) [CBK265326C],96.9
9,O=C(NCC1CCCN1)c1cc(C(=O)c2ccc(Cl)cc2Cl)c[nH]1 (stereo not drawn) [CBK115923C],86.1
10,CCNC(=O)C1(NC(=O)c2cn3ccccc3n2)CCCCC1 [CBK305240],102
11,Cn1c(=O)[nH]c(=O)c2cnc(-c3ccc(Cl)cc3)nc21 [CBK291208],95.6
12,CCn1cc(CN(C)C(=S)Nc2cccc(C(C)=O)c2)c(C)n1 [CBK267040],106
13,O=C(CN1CCN(C(c2ccccc2)c2ccccc2)CC1)CN1C(=O)c2ccccc2C1=O [CBK261682],97.3
14,c1ccc(CCN2CCN(Cc3ncc[nH]3)CC2)cc1 [CBK138328],120
15,O=C(NCc1ccccn1)c1ccc(CNS(=O)(=O)c2cccc(C(F)(F)F)c2)cc1 [CBK267291],87.7
16,CCc1nn(CC(=O)NC(C)(C)C)c(=O)c2cc3sc(C)cc3n12 [CBK284124],83.9
17,O=C(NC1CCCCC1)O[C@@H]1CO[C@H]2[C@@H]1OC[C@@H]2Nc1nccc(-c2cccs2)n1 [CBK289514],87.4
18,Cc1ccc(NC(=O)c2ccncc2)cc1C [CBK174646],97.5
19,CCn1c2ccccc2c2cc(C#N)c(=O)[nH]c21 [CBK013595],93.9
20,O=C(Cc1ccc(Cl)c(Cl)c1)N1CCCC2(CCN(Cc3ccccc3)C2)C1 (stereo not drawn) [CBK136872],91.9
21,CN(C)c1ccc(NC(=O)CC2Nc3ccccc3NC2=O)cc1 (stereo not drawn) [CBK262765],87.1
22,Cc1ccc(NC(=O)c2nccc3ccccc23)c(C)n1 [CBK200294],93.2
23,Cc1nc2ccc(C(=O)N3CCN(c4ccccc4)CC3)cn2c1N(C)C(=O)c1cccs1 [CBK146544],99

row,Structure (SMILES),"viability at 28.5 h, 10 µM [%]"
1,NC(=O)CC[n+]1ccc2ccccc2c1 [CBK022857C],110
2,Cc1ccc2c(c1)C(NC(=O)C1CCN(S(C)(=O)=O)CC1)CC(C)(C)O2 (stereo not drawn) [CBK307604],109
3,Cn1ccnc1CN1C[C@@H]2CN(C(=O)C3CCCC3)C[C@]2(C(=O)O)C1 [CBK307201],102
4,COc1ccc(C(=O)C2CCCCC23NCCN3)cc1 (stereo not drawn) [CBK023140],104
5,Cn1c(=O)c2c(ncn2CC(=O)Nc2cccc3ccccc23)n(C)c1=O [CBK133515],95.8
6,O=C(CCN1C(=O)/C(=C/c2ccc(F)cc2)SC1=S)NNC(=O)c1ccncc1 [CBK262821],92.4
7,Nc1cc2ccccc2c(-c2ccc3c(c2)OCCCO3)n1 [CBK085722],102
8,Cc1cc(C)n(CC(=O)N2CCCC2c2ccc(C)c(C)c2)c(=O)n1 (stereo not drawn) [CBK282991],99
9,O=C(CCOc1ccc(F)cc1)Nc1cnc(-c2ccc(F)cc2)c(-c2ccoc2)n1 [CBK037166],91.9
10,Cc1cccc(N(CC(=O)NCc2ccco2)S(=O)(=O)c2ccccc2)c1 [CBK263571],87.7
11,O=c1nc(C(F)(F)F)n2ccccc2n1 [CBK027683],97.2
12,FC(F)(F)Oc1ccc(-c2c[nH]c([C@@H]3COCCN3Cc3c[nH]cn3)n2)cc1 [CBK289303],111
13,CCN(Cc1ccncc1)C(=O)NCc1cc(C)on1 [CBK155122],85.2
14,COCC(=O)N1CCN2C(=O)c3ccc(Cl)cc3NC(=O)[C@H]2C1 [CBK289588],84.6
15,CC(C)(C)c1ccc(-c2cnc3nc(N)ccc3c2)cc1 [CBK061888],88.3
16,O=C(NC1Cc2ccccc2C1)c1nccc2ccccc12 [CBK200356],97
17,Cc1nc(CC(=O)Nc2ccc(N3CCOCC3)cn2)cs1 [CBK305251],91
18,COc1cccc(CN2CCN(C(=O)N3CCCCC3)[C@@H](C)C2)c1 [CBK284266],95
19,CS(=O)(=O)c1ccc(-c2ccc(COC3CCN(C(=O)Cc4cccc(C(F)(F)F)c4)CC3)cn2)cc1 [CBK162231T],102
20,OCCN1CCN(c2nc(-c3cc(Cl)cc(Cl)c3)cn3ccnc23)CC1 [CBK066558],94.1

# Same assay, conditions: human, hela cells, % viability, bulk resorufin, single well
row,Structure (SMILES),"viability at 28.5 h, 10 µM [%]"
1,c1csc(-c2ccc3c(c2)COC2(CCNCC2)O3)c1 [CBK060871],90.3
